From PubChem BioAssay AID1996
In brackets after ≈: the same amount, converted by molar mass.

conditions: buffer; pH 7.4; 200.0 µM

| SMILES | solubility kinetic [µg/mL] |
| --- | --- |
| CC1=C(C(=O)OCC2CCCCC2)C(c2ccc(F)cc2)NC(=O)N1 (centres undefined) | 0.5 (≈ 1.44 µM) |
| COc1cccc(C2=NOC(C(=O)Nc3cc(C)on3)C2)c1OC (centres undefined) | 46.5 (≈ 140 µM) |
| COc1ccc(S(=O)(=O)N2CCCCC2)cc1NC(=O)c1[nH]c(C)c(C(C)=O)c1C | 3.2 (≈ 7.38 µM) |
| NC(=O)c1cccnc1 | 2.8 (≈ 22.9 µM) |
| Cc1cc(C)cc(NC(=O)NCc2c(-c3ccccc3)noc2C)c1 | 0.8 (≈ 2.39 µM) |
| CCCc1cc(=O)[nH]c(SCC(=O)Nc2ccc(C(=O)Nc3ccccc3OC)cc2)n1 | 6.7 (≈ 14.8 µM) |
| CCOC(=O)C1CCCN(Cc2nc(C3CC3)no2)C1 (centres undefined) | 36.5 (≈ 131 µM) |
| O=C(CSc1ccccc1Cl)N1CCOCC1 | > 40.8 |
| COc1cc2c(cc1OC)CN(C(=O)c1oc3ccccc3c1C)CC2 | 27.2 (≈ 77.4 µM) |
| O=C(COc1ccc(Br)cc1F)NC1CC1 | > 43.2 |
| COc1ccccc1C(=O)NC(C)c1ccc(-n2ccnc2)cc1 (centres undefined) | > 48.2 |
| CCOC(=O)C1CCN(Cc2ccc(-c3ccccc3)cc2)CC1 | 25.6 (≈ 79.2 µM) |
| COCCN(Cc1ccccc1)C(=S)Nc1ccc(Cl)cc1 | 8.6 (≈ 25.7 µM) |
| O=C1CSC(c2ccccn2)N1c1ccc(C(F)(F)F)cc1 (centres undefined) | > 48.6 |
| Cc1ccc(NC(=S)NCCC2=CCCCC2)cc1 | 0.6 (≈ 2.19 µM) |
| COc1ccc(CNCc2cccn2C)cc1.Cl | > 40 |
| Cc1ccnc(NC(=O)Cc2c(F)cccc2Cl)c1 | > 41.8 |
| COc1cccc(NC(=O)CN(C)C(=O)C2CC3C=CC2C3)c1 (centres undefined) | > 47.2 |
| O=C(CN1CCOCC1)Nc1cc([N+](=O)[O-])ccc1Cl | 9.8 (≈ 32.7 µM) |
| O=C(Nc1ccc(Cl)cc1F)C1CC1c1ccccc1 (centres undefined) | 1.4 (≈ 4.83 µM) |

| SMILES | solubility kinetic [µg/mL] |
| --- | --- |
| Cc1cc(Cl)ccc1NC(=S)NCC(O)c1ccccc1 (centres undefined) | > 48.1 |
| COc1ccccc1OCCCC(=O)NCc1ccco1 | > 43.4 |
| COc1ccccc1CC(=O)NCc1csc(-c2cccs2)n1 | 46 (≈ 134 µM) |
| CC(C)c1ccc(CNCCCSc2ncccn2)cc1.Cl | 49.1 |
| O=C(Nc1cc2c(cc1Br)OCCO2)c1cccnc1 | > 50.3 |
| COC(=O)c1ccc(NC(=O)C2CC3CCC2C3)cc1 (centres undefined) | 8.1 (≈ 29.6 µM) |
| COc1ccc(N2C(=O)c3ccccc3NC2(C)C)cc1 | 8.3 (≈ 29.4 µM) |
| COc1cc2c(cc1OC)C(C)N(S(=O)(=O)c1ccc(C)cc1)CC2 (centres undefined) | 26.8 (≈ 74.1 µM) |
| COc1ccc(CCN2C(=S)N(c3ccccc3)C(=O)C2CC(=O)O)cc1OC (centres undefined) | > 62.2 |
| Cc1noc(C)c1C(=O)NCc1ccccc1Br | 44.6 (≈ 144 µM) |
| CN1C(C(=O)Nc2ncccn2)=C(O)c2ccccc2S1(=O)=O | > 49.8 |
| COc1cc(S(=O)(=O)N2CCOCC2)ccc1NC(=O)COC(=O)c1ccc(Cl)nc1 | 6.4 (≈ 13.6 µM) |
| Cc1cc(NC(=O)c2cccc([N+](=O)[O-])c2)no1 | < 0.2 |
| COC(=O)C1CN(C(=O)COc2ccccc2)c2ccccc2O1 (centres undefined) | 48.7 (≈ 149 µM) |
| O=C(Cc1ccsc1)NCC(=O)Nc1ccccc1Br | > 53 |
| OCc1nc2ccccc2n1Cc1ccc(Cl)cc1 | 28.4 (≈ 104 µM) |
| CN(C)S(=O)(=O)c1ccc(NC=C(C#N)C#N)cc1 | 26.3 (≈ 95.2 µM) |
| O=C(Nc1cccnc1)C1CC(=O)N(c2ccc(F)cc2)C1 (centres undefined) | > 44.9 |
| COc1ccc(C)cc1NC(=S)Nc1ccccc1SC | 10.5 (≈ 33 µM) |
| CN(CC(=O)Nc1ccc(F)cc1)C(=O)c1ccccc1OCc1ccc(F)cc1 | 30.4 (≈ 74.1 µM) |

| SMILES | solubility kinetic [µg/mL] |
| --- | --- |
| COc1ccc(CCC(=O)NCc2cccc(C(F)(F)F)c2)cc1 | 10.3 (≈ 30.5 µM) |
| O=[N+]([O-])/C=C/c1ccc2c(ccn2Cc2ccccc2)c1 | 0.6 (≈ 2.16 µM) |
| O=C(Nc1ccc(OC(F)(F)F)cc1)c1ccc2c(c1)no[n+]2[O-] | 1.1 (≈ 3.24 µM) |
| O=C(NCc1ccccc1Cl)C1CC(=O)N(Cc2ccccc2)C1 (centres undefined) | > 51.4 |
| COc1cc(CO)ccc1OCc1ccc(Cl)nc1 | > 42 |
| Cc1ccc(CNC(=O)COC(=O)C2CC2)cc1 | > 37.1 |
| CCc1ccc(OCC(=O)N2CC(C(N)=O)Oc3ccccc32)cc1 (centres undefined) | 45.1 (≈ 132 µM) |
| CC(=O)Nc1c(F)cc(Br)cc1F | > 37.5 |
| Cc1ccc(OCCC(=O)OCC(=O)NC2CCCC(C)C2C)cc1 (centres undefined) | 15.9 (≈ 45.8 µM) |
| Cl.O=C(c1cccc(S(=O)(=O)N2CCc3ccccc32)c1)N1CCN(CCO)CC1 | > 67.8 |
| CN1CCN(C(=O)/C=C/c2ccc(Cl)c(Cl)c2)CC1 | 41 (≈ 137 µM) |
| COCCCNC(=O)c1cc2cc3cc(OC)ccc3nc2o1 | > 47.2 |
| CCOc1ccc(C(=O)OC(C)C(=O)N2CCN(Cc3ccccc3)CC2)cc1 (centres undefined) | > 59.5 |
| Cn1cccc1/C=C1/C(=O)NC(=O)N(C(C)(C)C)C1=O | 37.1 (≈ 135 µM) |
| CC(C)C(NS(=O)(=O)c1cc(C(=O)O)ccc1Cl)C(=O)O (centres undefined) | 44.7 (≈ 133 µM) |
| CC(=O)c1sc(Nc2nc3cc4c(cc3s2)OCO4)nc1C | 0.6 (≈ 1.8 µM) |
| O=S(=O)(N=C(NS(=O)(=O)c1ccc(Cl)cc1)c1ccccc1)c1ccc(Cl)cc1 | > 70.4 |
| CCC(C)C(NC(=O)c1ccccc1NC(=O)c1ccccc1)C(=O)O (centres undefined) | 50.7 (≈ 143 µM) |
| COc1ccc(-n2c(CN3CCOCC3)nc3ccccc3c2=O)c(OC)c1 | > 57.2 |
